Data: patent US12077503B2, “Substituted cyclic amides and their use as herbicides” (FMC CORPORATION, priority 2015, dated 2024)

Columns and labels:
[1] = tested on: Galium (catchweed bedstraw, Galium aparine); assay: Test C preemergence; assay type: in vivo; settings: for Plant response rating, Galium: scale 0 to 100, 0 no effect, 100 complete control
How it was run: (§1)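 Preemergence application to seeds in loam/sand soil, or foliar (postemergence) application to plants 2–18 cm tall in peat moss/vermiculite medium; surfactant-containing non-phytotoxic solvent vehicle; greenhouse. Visual injury vs controls at 13–15 d; 0 = no effect, 100 = complete control.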

[2] = tested on: barnyardgrass (Echinochloa crus-galli); assay: Test C preemergence; assay type: in vivo; settings: for Plant response rating, Barnyardgrass: scale 0 to 100, 0 no effect, 100 complete control
How it was run: as §1

[3] = tested on: blackgrass (Alopecurus myosuroides); assay: Test C preemergence; assay type: in vivo; settings: for Plant response rating, Blackgrass: scale 0 to 100, 0 no effect, 100 complete control
How it was run: as §1

corn (Zea mays) = assay: Test C preemergence; assay type: in vivo; settings: for Plant response rating, Corn: scale 0 to 100, 0 no effect, 100 complete control
How it was run: as §1

[4] = tested on: crabgrass, large (large crabgrass, Digitaria sanguinalis); assay: Test C preemergence; assay type: in vivo; settings: for Plant response rating, Crabgrass, Large: scale 0 to 100, 0 no effect, 100 complete control
How it was run: as §1

[5] = tested on: foxtail, giant (giant foxtail, Setaria faberii); assay: Test C preemergence; assay type: in vivo; settings: for Plant response rating, Foxtail, Giant: scale 0 to 100, 0 no effect, 100 complete control
How it was run: as §1

[6] = tested on: johnsongrass (Sorghum halepense); assay: Test C preemergence; assay type: in vivo; settings: for Plant response rating, Johnsongrass: scale 0 to 100, 0 no effect, 100 complete control
How it was run: as §1

[7] = tested on: lambsquarters (Chenopodium album); assay: Test C preemergence; assay type: in vivo; settings: for Plant response rating, Lambsquarters: scale 0 to 100, 0 no effect, 100 complete control
How it was run: as §1

[8] = tested on: morningglory (Ipomoea coccinea); assay: Test C preemergence; assay type: in vivo; settings: for Plant response rating, Morningglory: scale 0 to 100, 0 no effect, 100 complete control
How it was run: as §1

[9] = tested on: nutsedge, yellow (yellow nutsedge, Cyperus esculentus); assay: Test C preemergence; assay type: in vivo; settings: for Plant response rating, Nutsedge, Yellow: scale 0 to 100, 0 no effect, 100 complete control
How it was run: as §1

[10] = tested on: oilseed rape (Brassica napus); assay: Test C preemergence; assay type: in vivo; settings: for Plant response rating, Oilseed Rape: scale 0 to 100, 0 no effect, 100 complete control
How it was run: as §1

[11] = tested on: pigweed (Amaranthus retroflexus); assay: Test C preemergence; assay type: in vivo; settings: for Plant response rating, Pigweed: scale 0 to 100, 0 no effect, 100 complete control
How it was run: as §1

[12] = tested on: ragweed (common ragweed, Ambrosia elatior); assay: Test C preemergence; assay type: in vivo; settings: for Plant response rating, Ragweed: scale 0 to 100, 0 no effect, 100 complete control
How it was run: as §1

[13] = tested on: ryegrass, Italian (Italian ryegrass, Lolium multiflorum); assay: Test C preemergence; assay type: in vivo; settings: for Plant response rating, Ryegrass, Italian: scale 0 to 100, 0 no effect, 100 complete control
How it was run: as §1

soybean (Glycine max) = assay: Test C preemergence; assay type: in vivo; settings: for Plant response rating, Soybean: scale 0 to 100, 0 no effect, 100 complete control
How it was run: as §1

[14] = tested on: velvetleaf (Abutilon theophrasti); assay: Test C preemergence; assay type: in vivo; settings: for Plant response rating, Velvetleaf: scale 0 to 100, 0 no effect, 100 complete control
How it was run: as §1

[15] = tested on: waterhemp (common waterhemp, Amaranthus rudis); assay: Test C preemergence; assay type: in vivo; settings: for Plant response rating, Waterhemp: scale 0 to 100, 0 no effect, 100 complete control
How it was run: as §1

[16] = tested on: wheat (winter wheat, Triticum aestivum); assay: Test C preemergence; assay type: in vivo; settings: for Plant response rating, Wheat: scale 0 to 100, 0 no effect, 100 complete control
How it was run: as §1

[17] = tested on: ducksalad (Heteranthera limosa); assay: Test C flooded paddy test; assay type: in vivo; settings: Flood; for Plant response rating (scale of 0 to 100), Ducksalad: 0 is no effect, 100 is complete control
How it was run: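 Test compounds were dosed straight into the flood water of pots holding 2-leaf-stage plants, with water kept 3 cm above the soil. Greenhouse plants were scored visually against controls after 13 to 15 d, from 0 (no effect) to 100 (complete control).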

[18] = 31 g ai/ha, 0 is no effect, 100 is complete control

C=C(C)c1ccc([C@H]2CN(C)C(=O)[C@@H]2C(=O)Nc2cccc(F)c2F)cc1 [Compound 1149]
melting point: 126 to 130 °C

C=C(C)c1cccc([C@H]2CN(C)C(=O)[C@@H]2C(=O)Nc2cccc(F)c2C)c1 [Compound 1086]
melting point: 89 to 93 °C

O=C1NC[C@H](c2ccc(F)c(Oc3ccccc3)c2)[C@H]1C(=O)Nc1cccc(F)c1F [Compound 1258]
melting point: 123 to 127 °C

COc1ccc([C@H]2CNC(=O)[C@@H]2C(=O)Nc2cccc(F)c2F)cc1 [Compound 1341]
melting point: 187 to 191 °C

O=C1NC[C@H](c2cc(Br)cc(Br)c2)[C@H]1C(=O)Nc1cccc(F)c1F [Compound 1366]
melting point: 81 to 85 °C

CN1C[C@H](c2ccc(F)c(Oc3ccccc3)c2)[C@@H](C(=O)Nc2ccccc2S(C)(=O)=O)C1=O [Compound 1143]
melting point: 141 to 145 °C

CC(C)=CC1CNC(=O)C1C(=O)Nc1cccc(F)c1F (stereo not shown) [Compound 1012]
melting point: 162 to 166 °C

COc1cccc([C@H]2CN(C)C(=O)[C@@H]2C(=O)Nc2cccc(F)c2F)c1F [Compound 1072]
melting point: 163 to 167 °C

COc1ccc([C@H]2CN(C)C(=O)[C@@H]2C(=O)Nc2cccc(F)c2F)cc1 [Compound 1343]
melting point: 130 to 134 °C

CN1CC(c2cc(F)cc(F)c2)C(C(=O)Nc2cccc(F)c2F)C1=O (stereo not shown) [Compound 644]
Plant response rating (scale of 0 to 100), Galium [1, 18]: 10
Plant response rating, Galium ([1]; 62 g ai/ha): 85
Plant response rating, Galium ([1]; 125 g ai/ha): 90
Plant response rating, Galium ([1]; 250 g ai/ha): 98
Plant response rating (scale of 0 to 100), Barnyardgrass [2, 18]: 90
Plant response rating, Barnyardgrass ([2]; 62 g ai/ha): 95
Plant response rating, Barnyardgrass ([2]; 125 g ai/ha): 98
Plant response rating, Barnyardgrass ([2]; 250 g ai/ha): 98
Plant response rating (scale of 0 to 100), Blackgrass [3, 18]: 70
Plant response rating, Blackgrass ([3]; 62 g ai/ha): 70
Plant response rating, Blackgrass ([3]; 125 g ai/ha): 90
Plant response rating, Blackgrass ([3]; 250 g ai/ha): 95
Plant response rating (scale of 0 to 100), Corn (corn (Zea mays); [18]): 30
Plant response rating, Corn (corn (Zea mays); 62 g ai/ha): 50
Plant response rating, Corn (corn (Zea mays); 125 g ai/ha): 65
Plant response rating, Corn (corn (Zea mays); 250 g ai/ha): 85
Plant response rating (scale of 0 to 100), Crabgrass, Large [4, 18]: 95
Plant response rating, Crabgrass, Large ([4]; 62 g ai/ha): 95
Plant response rating, Crabgrass, Large ([4]; 125 g ai/ha): 98
Plant response rating, Crabgrass, Large ([4]; 250 g ai/ha): 100
Plant response rating (scale of 0 to 100), Foxtail, Giant [5, 18]: 95
Plant response rating, Foxtail, Giant ([5]; 62 g ai/ha): 95
Plant response rating, Foxtail, Giant ([5]; 125 g ai/ha): 98
Plant response rating, Foxtail, Giant ([5]; 250 g ai/ha): 98
Plant response rating (scale of 0 to 100), Johnsongrass [6, 18]: 35
Plant response rating, Johnsongrass ([6]; 62 g ai/ha): 70
Plant response rating, Johnsongrass ([6]; 125 g ai/ha): 85
Plant response rating, Johnsongrass ([6]; 250 g ai/ha): 85
Plant response rating (scale of 0 to 100), Lambsquarters [7, 18]: 50
Plant response rating, Lambsquarters ([7]; 62 g ai/ha): 75
Plant response rating, Lambsquarters ([7]; 125 g ai/ha): 85
Plant response rating, Lambsquarters ([7]; 250 g ai/ha): 85
Plant response rating (scale of 0 to 100), Morningglory [8, 18]: 0
Plant response rating, Morningglory ([8]; 62 g ai/ha): 0
Plant response rating, Morningglory ([8]; 125 g ai/ha): 0
Plant response rating, Morningglory ([8]; 250 g ai/ha): 0
Plant response rating (scale of 0 to 100), Nutsedge, Yellow [9, 18]: 0
Plant response rating, Nutsedge, Yellow ([9]; 62 g ai/ha): 0
Plant response rating, Nutsedge, Yellow ([9]; 125 g ai/ha): 0
Plant response rating, Nutsedge, Yellow ([9]; 250 g ai/ha): 15
Plant response rating (scale of 0 to 100), Oilseed Rape [10, 18]: 0
Plant response rating, Oilseed Rape ([10]; 62 g ai/ha): 50
Plant response rating, Oilseed Rape ([10]; 125 g ai/ha): 85
Plant response rating, Oilseed Rape ([10]; 250 g ai/ha): 90
Plant response rating (scale of 0 to 100), Pigweed [11, 18]: 0
Plant response rating, Pigweed ([11]; 62 g ai/ha): 55
Plant response rating, Pigweed ([11]; 125 g ai/ha): 55
Plant response rating, Pigweed ([11]; 250 g ai/ha): 70
Plant response rating (scale of 0 to 100), Ragweed [12, 18]: 25
Plant response rating, Ragweed ([12]; 62 g ai/ha): 35
Plant response rating, Ragweed ([12]; 125 g ai/ha): 70
Plant response rating, Ragweed ([12]; 250 g ai/ha): 85
Plant response rating (scale of 0 to 100), Ryegrass, Italian [13, 18]: 50
Plant response rating, Ryegrass, Italian ([13]; 62 g ai/ha): 55
Plant response rating, Ryegrass, Italian ([13]; 125 g ai/ha): 65
Plant response rating, Ryegrass, Italian ([13]; 250 g ai/ha): 98
Plant response rating (scale of 0 to 100), Soybean (soybean (Glycine max); [18]): 10
Plant response rating, Soybean (soybean (Glycine max); 62 g ai/ha): 10
Plant response rating, Soybean (soybean (Glycine max); 125 g ai/ha): 0
Plant response rating (scale of 0 to 100), Velvetleaf [14, 18]: 5
Plant response rating, Velvetleaf ([14]; 62 g ai/ha): 15
Plant response rating, Velvetleaf ([14]; 125 g ai/ha): 40
Plant response rating, Velvetleaf ([14]; 250 g ai/ha): 60
Plant response rating (scale of 0 to 100), Waterhemp [15, 18]: 10
Plant response rating, Waterhemp ([15]; 62 g ai/ha): 65
Plant response rating, Waterhemp ([15]; 125 g ai/ha): 65
Plant response rating, Waterhemp ([15]; 250 g ai/ha): 80
Plant response rating (scale of 0 to 100), Wheat [16, 18]: 30
Plant response rating, Wheat ([16]; 62 g ai/ha): 80
Plant response rating, Wheat ([16]; 125 g ai/ha): 85
Plant response rating, Wheat ([16]; 250 g ai/ha): 90
Plant response rating, Ducksalad ([17]; 31 g ai/ha, scale 0 to 100 (0 no effect, 100 complete control), 13 to 15 d): 55
Plant response rating (scale of 0 to 100), Ducksalad ([17]; 62 g ai/ha): 65
Plant response rating (scale of 0 to 100), Ducksalad ([17]; 125 g ai/ha): 100
Plant response rating (scale of 0 to 100), Ducksalad ([17]; 250 g ai/ha): 100

C=C(C)c1cccc([C@H]2CN(C)C(=O)[C@@H]2C(=O)Nc2cccc(F)c2F)c1 [Compound 1085]
melting point: 113 to 117 °C
